Data reported in patent US7927820B2 (priority 2004, dated 2011).
Read-outs that look alike come from different tables or passages of the source. Bridges are numbered along the chain shown (N, C = ends). Where no end group is shown, it is not given here.

Tests used:
[1] = biological target: P/Q-type calcium channels (Homo sapiens, UniProt O00555); conditions: cited from earlier work
[2] = biological target: N-type calcium channels in cell membranes isolated from rat brain (Rattus norvegicus, UniProt Q02294); assay type: binding
N-type calcium channels in cell membranes isolated from rat brain, sequence (Q02294 whole entry, looked up): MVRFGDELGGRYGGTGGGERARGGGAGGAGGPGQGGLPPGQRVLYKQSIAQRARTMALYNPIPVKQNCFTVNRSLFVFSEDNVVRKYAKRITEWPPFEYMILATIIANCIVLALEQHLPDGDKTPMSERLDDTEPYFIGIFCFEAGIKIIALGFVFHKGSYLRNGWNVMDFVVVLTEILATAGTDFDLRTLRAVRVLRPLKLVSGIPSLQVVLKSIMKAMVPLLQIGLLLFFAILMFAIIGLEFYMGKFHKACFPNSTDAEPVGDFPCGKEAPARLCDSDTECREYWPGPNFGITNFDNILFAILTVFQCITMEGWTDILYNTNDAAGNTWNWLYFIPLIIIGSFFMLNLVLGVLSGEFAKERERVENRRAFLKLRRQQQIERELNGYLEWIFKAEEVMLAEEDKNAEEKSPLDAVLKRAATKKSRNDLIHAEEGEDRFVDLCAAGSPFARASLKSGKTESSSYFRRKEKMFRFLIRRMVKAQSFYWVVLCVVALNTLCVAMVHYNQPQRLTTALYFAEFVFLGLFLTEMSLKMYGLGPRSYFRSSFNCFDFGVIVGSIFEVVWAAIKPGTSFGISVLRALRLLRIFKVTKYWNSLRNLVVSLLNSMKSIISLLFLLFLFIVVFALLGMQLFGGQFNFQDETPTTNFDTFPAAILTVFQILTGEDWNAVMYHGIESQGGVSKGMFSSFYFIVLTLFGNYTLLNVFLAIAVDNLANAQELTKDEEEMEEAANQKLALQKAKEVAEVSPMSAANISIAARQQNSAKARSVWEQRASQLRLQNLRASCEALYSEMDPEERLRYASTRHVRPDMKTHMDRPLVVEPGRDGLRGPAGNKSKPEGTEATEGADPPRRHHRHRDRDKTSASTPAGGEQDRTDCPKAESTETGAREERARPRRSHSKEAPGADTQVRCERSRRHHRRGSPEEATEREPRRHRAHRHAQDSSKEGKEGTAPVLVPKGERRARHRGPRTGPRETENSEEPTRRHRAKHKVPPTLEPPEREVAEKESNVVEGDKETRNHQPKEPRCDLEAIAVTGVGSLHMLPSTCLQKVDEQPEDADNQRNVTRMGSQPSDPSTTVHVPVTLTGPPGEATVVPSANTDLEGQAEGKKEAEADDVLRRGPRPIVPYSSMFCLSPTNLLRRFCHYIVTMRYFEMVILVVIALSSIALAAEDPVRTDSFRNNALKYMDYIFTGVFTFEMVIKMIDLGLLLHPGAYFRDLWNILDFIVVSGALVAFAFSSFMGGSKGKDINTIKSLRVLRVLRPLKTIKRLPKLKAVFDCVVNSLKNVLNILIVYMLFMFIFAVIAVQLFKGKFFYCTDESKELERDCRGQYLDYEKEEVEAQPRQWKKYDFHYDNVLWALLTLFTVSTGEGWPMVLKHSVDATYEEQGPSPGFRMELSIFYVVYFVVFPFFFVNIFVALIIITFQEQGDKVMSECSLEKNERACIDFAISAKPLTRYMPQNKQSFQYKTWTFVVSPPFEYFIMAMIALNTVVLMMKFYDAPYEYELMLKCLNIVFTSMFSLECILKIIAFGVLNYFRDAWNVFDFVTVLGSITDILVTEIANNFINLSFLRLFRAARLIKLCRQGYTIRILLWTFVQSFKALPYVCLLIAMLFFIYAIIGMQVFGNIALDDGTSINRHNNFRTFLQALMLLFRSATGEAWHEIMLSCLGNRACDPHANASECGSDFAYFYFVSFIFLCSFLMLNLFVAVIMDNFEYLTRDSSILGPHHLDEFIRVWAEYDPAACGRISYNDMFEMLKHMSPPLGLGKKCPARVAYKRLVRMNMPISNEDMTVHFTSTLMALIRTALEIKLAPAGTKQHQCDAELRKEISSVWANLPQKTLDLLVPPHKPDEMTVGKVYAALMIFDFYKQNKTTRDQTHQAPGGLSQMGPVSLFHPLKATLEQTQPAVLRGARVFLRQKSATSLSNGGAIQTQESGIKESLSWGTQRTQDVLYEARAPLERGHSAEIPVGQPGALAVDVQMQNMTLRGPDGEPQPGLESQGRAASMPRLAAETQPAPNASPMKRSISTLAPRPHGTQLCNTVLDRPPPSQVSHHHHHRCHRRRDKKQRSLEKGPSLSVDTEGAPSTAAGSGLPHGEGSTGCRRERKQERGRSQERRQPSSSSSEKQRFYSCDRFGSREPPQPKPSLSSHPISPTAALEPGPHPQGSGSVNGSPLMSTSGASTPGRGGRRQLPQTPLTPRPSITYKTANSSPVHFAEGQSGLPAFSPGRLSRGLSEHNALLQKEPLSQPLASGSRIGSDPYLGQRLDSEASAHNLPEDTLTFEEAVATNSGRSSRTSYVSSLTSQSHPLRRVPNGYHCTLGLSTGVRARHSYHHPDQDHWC

N-type calcium channels = N-type calcium channels (Homo sapiens, UniProt Q00975); conditions: cited from earlier work

P/Q-type calcium channels, sequence (O00555 whole entry, looked up): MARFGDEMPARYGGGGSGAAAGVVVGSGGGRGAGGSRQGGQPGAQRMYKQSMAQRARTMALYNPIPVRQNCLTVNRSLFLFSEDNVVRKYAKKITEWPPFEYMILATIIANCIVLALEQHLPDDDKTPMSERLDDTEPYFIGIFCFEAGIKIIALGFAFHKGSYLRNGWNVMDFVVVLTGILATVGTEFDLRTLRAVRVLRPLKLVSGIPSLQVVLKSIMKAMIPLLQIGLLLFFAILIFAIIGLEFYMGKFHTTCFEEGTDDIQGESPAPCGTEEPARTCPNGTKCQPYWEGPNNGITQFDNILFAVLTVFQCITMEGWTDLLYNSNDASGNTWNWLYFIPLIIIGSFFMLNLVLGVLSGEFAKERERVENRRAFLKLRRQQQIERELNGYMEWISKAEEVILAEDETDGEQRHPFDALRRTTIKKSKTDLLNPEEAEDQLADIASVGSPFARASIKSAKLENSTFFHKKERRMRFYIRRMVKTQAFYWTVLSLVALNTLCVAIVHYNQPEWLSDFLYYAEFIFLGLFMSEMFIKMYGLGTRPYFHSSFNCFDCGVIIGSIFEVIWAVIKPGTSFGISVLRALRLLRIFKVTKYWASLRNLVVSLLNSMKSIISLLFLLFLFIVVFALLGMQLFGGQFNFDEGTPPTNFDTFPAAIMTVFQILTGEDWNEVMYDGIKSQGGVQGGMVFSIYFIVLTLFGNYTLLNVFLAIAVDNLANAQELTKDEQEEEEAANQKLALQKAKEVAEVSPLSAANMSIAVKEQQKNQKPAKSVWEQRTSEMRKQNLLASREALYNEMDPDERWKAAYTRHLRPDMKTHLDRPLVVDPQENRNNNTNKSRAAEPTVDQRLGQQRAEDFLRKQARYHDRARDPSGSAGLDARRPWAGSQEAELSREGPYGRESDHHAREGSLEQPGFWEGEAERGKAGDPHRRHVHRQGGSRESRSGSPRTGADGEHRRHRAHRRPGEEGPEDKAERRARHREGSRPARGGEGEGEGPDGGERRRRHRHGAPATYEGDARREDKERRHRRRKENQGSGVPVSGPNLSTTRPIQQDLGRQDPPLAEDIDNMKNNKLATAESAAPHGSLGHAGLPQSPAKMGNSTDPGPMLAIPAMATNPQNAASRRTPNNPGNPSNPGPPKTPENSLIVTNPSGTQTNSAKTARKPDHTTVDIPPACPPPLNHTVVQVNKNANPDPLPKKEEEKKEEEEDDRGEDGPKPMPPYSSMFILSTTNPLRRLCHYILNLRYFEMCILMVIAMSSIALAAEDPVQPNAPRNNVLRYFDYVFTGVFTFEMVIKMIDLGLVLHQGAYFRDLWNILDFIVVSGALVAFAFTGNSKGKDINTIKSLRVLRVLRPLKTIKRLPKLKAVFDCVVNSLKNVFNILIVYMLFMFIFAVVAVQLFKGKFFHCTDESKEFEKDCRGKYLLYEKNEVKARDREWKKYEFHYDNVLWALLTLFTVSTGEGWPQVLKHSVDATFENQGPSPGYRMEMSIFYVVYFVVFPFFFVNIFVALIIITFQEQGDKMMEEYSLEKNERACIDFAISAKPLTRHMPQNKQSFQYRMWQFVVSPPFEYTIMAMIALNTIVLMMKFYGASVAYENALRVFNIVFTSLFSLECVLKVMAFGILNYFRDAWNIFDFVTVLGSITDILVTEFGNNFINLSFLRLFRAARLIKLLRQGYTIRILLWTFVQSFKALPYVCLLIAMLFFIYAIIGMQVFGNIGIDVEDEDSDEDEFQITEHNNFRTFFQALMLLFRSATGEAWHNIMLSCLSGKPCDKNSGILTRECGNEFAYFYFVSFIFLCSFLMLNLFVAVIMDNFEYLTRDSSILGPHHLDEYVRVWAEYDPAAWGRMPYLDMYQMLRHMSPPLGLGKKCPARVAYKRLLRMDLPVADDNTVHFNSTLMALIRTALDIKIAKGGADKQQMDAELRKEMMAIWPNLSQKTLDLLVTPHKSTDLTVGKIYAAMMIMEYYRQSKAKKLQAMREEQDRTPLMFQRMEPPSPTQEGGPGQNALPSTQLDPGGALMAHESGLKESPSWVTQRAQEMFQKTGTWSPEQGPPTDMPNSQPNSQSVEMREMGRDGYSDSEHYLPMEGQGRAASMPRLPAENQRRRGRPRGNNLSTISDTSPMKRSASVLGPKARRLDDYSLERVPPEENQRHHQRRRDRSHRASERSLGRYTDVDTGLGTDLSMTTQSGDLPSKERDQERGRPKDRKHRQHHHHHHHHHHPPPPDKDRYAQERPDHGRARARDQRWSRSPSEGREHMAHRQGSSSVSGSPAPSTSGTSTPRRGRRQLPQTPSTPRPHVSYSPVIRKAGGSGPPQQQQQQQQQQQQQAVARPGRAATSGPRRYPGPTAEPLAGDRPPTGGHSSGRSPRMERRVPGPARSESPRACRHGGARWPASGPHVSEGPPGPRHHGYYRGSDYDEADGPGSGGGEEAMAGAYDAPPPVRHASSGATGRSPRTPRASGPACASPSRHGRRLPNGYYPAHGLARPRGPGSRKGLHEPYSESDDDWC

Substance	P/Q-type calcium channel inhibition or binding (description) ([1]; literature)	relative binding affinity (order of displacement of [125I]GVIA binding) [2]	N-type calcium channel block (description) (N-type calcium channels)	P/Q-type calcium channel inhibition or binding (description) [1]
KKKCIAKDYGRCKWGGTPCCRGRGCICSIMGTNCECKPRLIMEGLGLA (disulfide 4-20, 12-25, 19-36, 27-34 (inferred)) [ω-Agatoxin, ω-Agatoxin IVA]	has been shown to bind	lowest relative binding affinity	–	–
ω-conotoxin GVIA	–	highest relative binding affinity	potent and selective blocker	–
ω-conotoxin MVIIC	–	–	weak inhibitor	potent inhibitor
